Data published in publication PMC7572767 (Psychopharmacology, 2020).

Molecular target: norepinephrine transporter (NET) (Homo sapiens, UniProt P23975)
Experiment: fluorescent substrate uptake inhibition in HEK293 cells stably expressing NET
Assay type: cell-based

norepinephrine transporter (NET), sequence (P23975 whole entry): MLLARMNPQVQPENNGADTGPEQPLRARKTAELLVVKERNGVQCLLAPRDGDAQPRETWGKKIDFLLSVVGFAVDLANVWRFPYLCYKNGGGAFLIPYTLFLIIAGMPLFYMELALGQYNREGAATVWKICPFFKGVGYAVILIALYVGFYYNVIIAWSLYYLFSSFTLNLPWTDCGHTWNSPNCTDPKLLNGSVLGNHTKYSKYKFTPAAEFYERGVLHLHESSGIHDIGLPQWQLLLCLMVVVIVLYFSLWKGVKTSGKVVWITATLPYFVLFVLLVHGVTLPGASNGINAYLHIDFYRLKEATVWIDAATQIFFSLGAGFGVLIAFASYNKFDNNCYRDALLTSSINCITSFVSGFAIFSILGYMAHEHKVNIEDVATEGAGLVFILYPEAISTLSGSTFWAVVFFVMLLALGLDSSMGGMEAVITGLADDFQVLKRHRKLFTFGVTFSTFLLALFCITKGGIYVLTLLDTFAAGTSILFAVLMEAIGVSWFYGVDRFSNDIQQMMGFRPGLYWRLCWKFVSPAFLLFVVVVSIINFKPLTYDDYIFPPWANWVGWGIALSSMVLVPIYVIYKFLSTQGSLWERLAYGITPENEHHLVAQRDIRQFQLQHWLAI

## [O-][S@@+](Cc1cncs1)[C@@H](c1ccccc1)c1cccc(Br)c1 [(S, S)-CE-158, 5-(((S)-((S)-(3-bromophenyl)(phenyl)methyl)sulfinyl)methyl)thiazole]
  IC50: 12 µM
